Tests used:
[1] = type: physicochemical
Protocol: 5% Rutin micro-sized powder was dispersed in water, shaken and subsequently centrifuged at 4,000 rpm and then filtered through a 0.45 μm filter to remove any potential non-dissolved fine crystals. A Rutin nanosuspension was treated the same way but using a 0.2 μm filter.

[2] = test system: skin of volunteers (UV erythem); experiment: photo-protective potential after topical application in vivo (MED for UV erythem, SPF); settings: human volunteers, 2 mg/cm^2 once daily on 4 days, UV irradiation day 4, 15 min after application
Description: The Rutin and the Hesperidin nanosuspensions were investigated in vivo regarding their photo-protective potential compared to solutions of a water-soluble Rutin conjugate with saccharide (example 15). Topical application of the anti-oxidants should increase the dose required to generate a UV erythem. The higher the photo-protective effect, the higher will be the increase in the MED for UV erythem generation. Based on the ratio MED of treated area/MED untreated area a sun protection factor can be calculated. […] To very well differentiate in efficiency between the preparations, the formulations were applied only over 4 days (day 1, 2, 3 and 4) and only once a day. […] It has to be noted that the selected concentration of Rutin saccharide was equivalent to 5% Rutin.
Various formulations were investigated regarding their photo-protective potential after topical application in vivo. These formulations contained antioxidants and the photo-protective potential was evaluated by assessing the MED for generating an UV erythem (MED—minimal dose required for generating an erythem, minimal erythem dose). The sun susceptibility of the skin of volunteers was assessed after four times of application (once daily) of the formulations in comparison to untreated skin. Based on this a sun protection factor (SPF) was calculated.
The study was performed as a placebo controlled double blind study. Three male and three female volunteers with normal skin of photo type II to III took part. The medium age of the female volunteers was 49.6±9.8 years (38.8-57.4 years). Topical application of the formulations took place on 4 subsequent days (2 mg/cm^2), once daily. On day 4 eradiation by UV was performed 15 minutes after application of the formulations to the skin using a sun simulator SU6p (m.u.t. GmbH, Wedel/Germany). The sun simulator created 6 single doses with a geometric increment of 25%. The 5 test areas were on the back of the volunteers (4 areas for the formulations, 1 untreated control area).
A sun protection factor was defined as the ratio of the MED of the formulation treated area to the MED of the untreated area.

Question: With `C[C@@H]1O[C@@H](OC[C@H]2O[C@@H](Oc3c(-c4ccc(O)c(O)c4)oc4cc(O)cc(O)c4c3=O)[C@H](O)[C@@H](O)[C@@H]2O)[C@H](O)[C@H](O)[C@H]1O` [microcrystalline Rutin suspension, Rutin] as the compound, how does the “saturation solubility (concentration of dissolved Rutin in filtrate)” value [1] read?
Answer: Its value is 0.0079%.

Question: For α-G Rutin PS, which “sun protection factor (SPF) = ratio MED treated area/MED untreated area (partly given as MED)” value ([2]; listed as AGRPS) is on record?
Answer: The value was 1.27±0.31.

Question: And the “sun protection factor (SPF) = ratio MED treated area/MED untreated area (partly given as MED)” value ([2]; listed as Rutin derivative solution)?
Answer: Its value is 1.27.

Question: And the “sun protection factor (SPF) = ratio MED treated area/MED untreated area (partly given as MED)” value ([2]; listed as Rutin saccharide)?
Answer: The value was 1.27.

Question: Which results are given for `CC(=O)Oc1c(C)c(C)c2c(c1C)CCC(C)(CCC[C@H](C)CCC[C@H](C)CCCC(C)C)O2` (stereo partly drawn) [α-tocopherol acetate]?
Answer: sun protection factor (SPF) = ratio MED treated area/MED untreated area (partly given as MED) [2]: 0.85±0.23; sun protection factor (SPF) = ratio MED treated area/MED untreated area (partly given as MED) ([2]; listed as alpha-tocopherol acetate): 0.85

Reference: patent publication US9114077B2, “Nanocrystals for use in topical cosmetic formulations and method of production thereof” (priority 2006, dated 2015)
